Reference: patent US12441691B2 (Cytokinetics, Inc., priority 2020, dated 2025)
In brackets after ≈: the same amount, converted by molar mass.

How the values were obtained:
[1] = test system: rabbit skeletal myofibrils (fast skeletal myofibrils); assay: Activation of fast skeletal myofibrils (PUMA assay, AC1.4); assay type: biochemical; details: calcium at pCa25, AC1.4 = concentration at which the compound increased the enzymatic activity
How it was run: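 In 12 mM PIPES pH 6.8 with 2 mM MgCl2 and 1 mM DTT, Triton-washed rabbit skeletal myofibrils were run at the pCa25 calcium level. Myosin-made ADP was recycled through a PK/LDH coupled system; NADH loss read at 340 nm.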

[2] = test system: ankle plantarflexor muscle; assay: Rat isometric ankle plantarflexor muscle force; assay type: in vivo, Sprague Dawley rats; details: continuous intravenous infusion over sixty minutes, 30 Hz nerve stimulation, estimated EC50 = concentration at which muscle force is 50% of pre-dose maximum tension
Excerpt: Female Sprague Dawley rats were placed under a stable anesthetic plane with inhaled isoflurane (1-5%). One incision was made on the mid-thigh region of the right leg to expose the sciatic nerve. To prevent co-contraction of the ankle dorsiflexors, an additional incision was made lateral to the patella to isolate and sever the peroneal nerve. Rats were then placed on a temperature-maintained in situ muscle analysis rig (Aurora Scientific, Model 806C). The knee was immobilized in a clamp between two sharpened screws and the foot was taped to a footplate attached to a force transducer (Aurora Scientific, Ontario, Canada). Stainless steel needle electrodes (0.10 mm) were hooked around the exposed sciatic nerve. Isometric ankle plantarflexor muscle contractile force was assessed with the ankle joint at 90° flexion. A 30 Hz electrical stimulation (under supramaximal voltage conditions) was applied to the nerve and the resulting muscle force was recorded via a servomotor. A pre-dose 30 Hz force response was established as the baseline force. A pre-dose 150 Hz force response was established as the maximum isometric force. Compounds were formulated in 50% polyethylene glycol (PEG): 16% Cavitron: 10% dimethylacetamide (DMA) and administered by continuous intravenous infusion over a sixty minute period. The muscle force response to compound was measured every two minutes over the dosing period. Data were reported as an estimated EC50 value, which is the concentration at which muscle force is 50% of the pre-dose maximum tension. In Table 10, “Example Compound” refers to the compound labeled with the same number in Table 2.

[3] = Gravimetric vapour sorption (GVS); assay type: physicochemical; details: for GVS mass change / GVS water uptake, mol equivalents of water: between 0 and 90% RH, 25° C.; for XRPD after GVS analysis: form after GVS measurement; for Hygroscopicity by GVS: 0-90% RH
Protocol: Sorption isotherms were obtained using a SMS DVS Intrinsic moisture sorption analyser, controlled by DVS Intrinsic Control software. The sample temperature was maintained at 25° C. by the instrument controls. The humidity was controlled by mixing streams of dry and wet nitrogen, with a total flow rate of 200 ml/min. The relative humidity was measured by a calibrated Rotronic probe (dynamic range of 1.0-100% RH), located near the sample. The weight change, (mass relaxation) of the sample as a function of % RH was constantly monitored by a microbalance (accuracy ±0.005 mg).
Typically, 5-30 mg of sample was placed in a tared mesh stainless steel basket under ambient conditions. The sample was loaded and unloaded at 40% RH and 25° C. (typical room conditions). A moisture sorption isotherm was performed as outlined below (2 scans per complete cycle). The standard isotherm was performed at 25° C. at 10% RH intervals over a 0-90% RH range. Typically, a double cycle (4 scans) was carried out. Data analysis was carried out within Microsoft Excel using the DVS Analysis Suite.
The sample was recovered after completion of the isotherm and re-analysed by XRPD.

[4] = Thermodynamic aqueous solubility (FaSSIF); assay type: physicochemical
Protocol: Aqueous solubility was determined by suspending sufficient compound in relevant media to give a maximum final concentration of >10 mg/ml of the parent free-form of the compound. The suspension was equilibrated at 37° C., on a Heidolph plate shaker set to 750 rpm for 24 hours. The pH of the saturated solution was then measured, and the suspension filtered through a glass fibre C filter (particle retention 1.2 μm) and diluted appropriately. Quantitation was by HPLC with reference to a standard solution of approximately 0.15 mg/ml in DMSO. Different volumes of the standard, diluted and undiluted sample solutions were injected. The solubility was calculated using the peak areas determined by integration of the peak found at the same retention time as the principal peak in the standard injection.

[5] = Water determination by Karl Fischer titration (KF); assay type: physicochemical
Protocol: The water content of each sample was measured on a Metrohm 874 Oven Sample Processor at 150° C. with 851 Titrano Coulometer using Hydranal Coulomat AG oven reagent and nitrogen purge. Weighed solid samples were introduced into a sealed sample vial. Approximately 10 mg of sample was used per titration and duplicate determinations were made. […] Data collection and analysis were performed using Tiamo software.

[6] = Static storage stability of crystalline form by XRPD; assay type: physicochemical
[7] = 40° C./75% RH, 7 days (one week)

SMILES | AC1.4 [1] [µM] | EC50 [2] [µM] | other results
CC[C@H](C)[C@H]1C(=O)Nc2ccccc2CN1C(=O)CC(N)=O [Compound 1, 3-((S)-3-((S)-sec-Butyl)-2-oxo-1,2,3,5-tetrahydro-4H-benzo[e][1,4]diazepin-4-yl)-3-oxopropanamide] | 0.91 | 26.2 | 
CC[C@H](C)[C@H]1C(=O)Nc2ccccc2CN1/C(N)=N/C#N [Compound 2, (S,E)-3-((S)-sec-Butyl)-N′-cyano-2-oxo-1,2,3,5-tetrahydro-4H-benzo[e][1,4]diazepine-4-carboximidamide] | 0.08 | 19.1 | 
CC[C@H](C)[C@H]1C(=O)Nc2ccccc2CN1CC(N)=O [Compound 6, 2-((S)-3-((S)-sec-Butyl)-2-oxo-1,2,3,5-tetrahydro-4H-benzo[e][1,4]diazepin-4-yl)acetamide] | 0.89 | 20.3 | 
CC(C)[C@H]1C(=O)Nc2ccccc2CN1C(N)=O [Compound 7, (S)-3-Isopropyl-2-oxo-1,2,3,5-tetrahydro-4H-benzo[e][1,4]diazepine-4-carboxamide] | 1.80 | 41.1 | 
CC[C@H](C)[C@H]1C(=O)Nc2cc(F)cc(F)c2CN1C(N)=O [Compound 8, (S)-3-((S)-sec-butyl)-6,8-difluoro-2-oxo-1,2,3,5-tetrahydro-4H-benzo[e][1,4]diazepine-4-carboxamide] | 0.37 | 15.2 | 
CC[C@H](C)[C@H]1C(=O)Nc2ccc(F)cc2CN1C(N)=O [Compound 9, (S)-3-((S)-sec-Butyl)-7-fluoro-2-oxo-1,2,3,5-tetrahydro-4H-benzo[e][1,4]diazepine-4-carboxamide] | 0.28 | 19.1 | 
CC[C@H](C)[C@H]1C(=O)Nc2cncc(F)c2CN1C(N)=O [Compound 10, (S)-3-((S)-sec-Butyl)-6-fluoro-2-oxo-1,2,3,5-tetrahydro-4H-pyrido[3,4-e][1,4]diazepine-4-carboxamide] | 0.71 | 18.8 | 
CC[C@H](C)[C@H]1C(=O)Nc2cnccc2CN1C(N)=O [Compound 12, (S)-3-((S)-sec-butyl)-2-oxo-1,2,3,5-tetrahydro-4H-pyrido[3,4-e][1,4]diazepine-4-carboxamide] | 0.84 | 38.7 | 
CC[C@H](C)[C@H]1C(=O)Nc2ccccc2CN1C(=O)N1CC(O)C1 [Compound 32, (S)-3-((S)-sec-Butyl)-4-(3-hydroxyazetidine-1-carbonyl)-1,3,4,5-tetrahydro-2H-benzo[e][1,4]diazepin-2-one] | 0.13 | 12.6 | 
CC[C@H](C)[C@H]1C(=O)Nc2ccccc2CN1C(=O)CCO [Compound 49, (S)-3-((S)-sec-butyl)-4-(3-hydroxypropanoyl)-1,3,4,5-tetrahydro-2H-benzo[e][1,4]diazepin-2-one] | 0.55 | 28 | 
CC(C)[C@H]1C(=O)Nc2ccccc2CN1/C(N)=N/C#N [Compound 64, (S,E)-N′-Cyano-3-isopropyl-2-oxo-1,2,3,5-tetrahydro-4H-benzo[e][1,4]diazepine-4-carboximidamide] | 0.53 | 20.1 | 
CC[C@H](C)[C@H]1C(=O)Nc2cccc(F)c2CN1C(N)=O [Compound 65, (S)-3-((S)-sec-butyl)-6-fluoro-2-oxo-1,2,3,5-tetrahydro-4H-benzo[e][1,4]diazepine-4-carboxamide] | 0.37 | 11.3 | 
CC[C@H](C)[C@H]1C(=O)Nc2cnccc2CN1/C(N)=N/C#N [Compound 82, (S,E)-3-((S)-sec-butyl)-N′-cyano-2-oxo-1,2,3,5-tetrahydro-4H-pyrido[3,4-e][1,4]diazepine-4-carboximidamide] | 0.24 | 21.4 | 
CC[C@H](C)[C@H]1C(=O)Nc2ccccc2CN1C(=O)N[C@H]1CCN(C)C1 [Compound 144, (S)-3-((S)-sec-butyl)-N-((S)-1-methylpyrrolidin-3-yl)-2-oxo-1,2,3,5-tetrahydro-4H-benzo[e][1,4]diazepine-4-carboxamide] | 0.28 | 10.5 | 
CC(C)[C@H]1C(=O)Nc2cc(F)ccc2CN1C(N)=O [Compound 357, (S)-8-fluoro-3-isopropyl-2-oxo-1,2,3,5-tetrahydro-4H-benzo[e][1,4]diazepine-4-carboxamide] | 1.69 | 58.3 | 
CC[C@H](C)[C@H]1C(=O)Nc2cnccc2CN1c1c(N(C)C)c(=O)c1=O [Compound 377, 3-((S)-3-((S)-sec-butyl)-2-oxo-1,2,3,5-tetrahydro-4H-pyrido[3,4-e][1,4]diazepin-4-yl)-4-(dimethylamino)cyclobut-3-ene-1,2-dione] | 0.29 |  | 
CC[C@H](C)[C@H]1C(=O)Nc2cnccc2CN1c1c(N)c(=O)c1=O [Compound 378, 3-amino-4-((S)-3-((S)-sec-butyl)-2-oxo-1,2,3,5-tetrahydro-4H-pyrido[3,4-e][1,4]diazepin-4-yl)cyclobut-3-ene-1,2-dione] | 0.15 |  | 
CC[C@H](C)[C@H]1C(=O)Nc2cnccc2CN1C(=O)N1CC(O)C1 [Compound 379, (S)-3-((S)-sec-butyl)-4-(3-hydroxyazetidine-1-carbonyl)-1,3,4,5-tetrahydro-2H-pyrido[3,4-e][1,4]diazepin-2-one] | 0.92 |  | 
CC[C@H](C)[C@H]1C(=O)Nc2cnccc2N1/C(=N/C#N)Oc1ccccc1 [Compound 380, phenyl (S,Z)-2-((S)-sec-butyl)-N-cyano-3-oxo-3,4-dihydropyrido[3,4-b]pyrazine-1(2H)-carbimidate] | 1.25 |  | 
CC[C@H](C)[C@H]1C(=O)Nc2cnccc2CN1c1c(NCCOC)c(=O)c1=O [Compound 381, 3-((S)-3-((S)-sec-butyl)-2-oxo-1,2,3,5-tetrahydro-4H-pyrido[3,4-e][1,4]diazepin-4-yl)-4-((2-methoxyethyl)amino)cyclobut-3-ene-1,2-dione] | 0.48 |  | 
CC[C@H](C)[C@H]1C(=O)Nc2cncc(F)c2CN1C(N)=O [Crystalline Form I, (S)-3-((S)-sec-Butyl)-6-fluoro-2-oxo-1,2,3,5-tetrahydro-4H-pyrido[3,4-e][1,4]diazepine-4-carboxamide] |  |  | GVS mass change [3]: 0.29% Mass change between 0 and 90% RH.; GVS water uptake, mol equivalents of water [3]: 0.04 mol. equivalents water; XRPD after GVS analysis [3]: Unchanged; XRPD of solid residues ([4]; solid residues after thermodynamic solubility in FaSSIF (37° C.)): Form I; solubility thermodynamic at 24 h ([4]; thermodynamic from solid, FaSSIF, 37° C., equilibrated 24 hours): 460 µg/mL (≈ 1640 µM); KF water content [5]: 0.1% water
CC[C@H](C)[C@H]1C(=O)Nc2cncc(F)c2CN1C(N)=O [Form II] |  |  | Static storage, XRPD [6, 7]: no changes; Hygroscopicity by GVS [3]: slightly hygroscopic; GVS mass change [3]: 0.23%; XRPD after GVS analysis [3]: unchanged
CC[C@H](C)[C@H]1C(=O)Nc2cncc(F)c2CN1C(N)=O [Form I] |  |  | Static storage, XRPD ([6]; 25° C./97% RH (one week for Form I)): unchanged; Static storage, XRPD [6, 7]: unchanged; Hygroscopicity by GVS [3]: slightly hygroscopic; GVS mass change [3]: 0.29%; GVS water uptake, mol equivalents of water [3]: 0.04 mol. equivalents water; XRPD after GVS analysis [3]: unchanged; KF water content [5]: 0.1%
